Test results: patent US10513534B2, “2′-chloro nucleoside analogs for HCV infection” (priority 2012, dated 2019)
Where two headings read alike, the source gives them in different places.

Columns and labels:
[1] = system: HCV genotype 1b replicon; assay: HCV replicon assay (Zluc luciferase); format: cell-based; conditions: Zluc cells, 72 hours, read-out: HCV Replicon EC50
Procedure: Huh-7-derived cell line (Zluc) that harbors an HCV genotype 1b replicon and a luciferase reporter gene was grown in Dulbecco's Modified Eagle Medium (DMEM) supplemented with 10% fetal bovine serum, 2 mM GlutaMAX, 1% MEM nonessential amino acids, 100 IU/mL penicillin, 100 μg/mL streptomycin, and 0.5 mg/mL Geneticin® (G418). For dose response testing the cells were seeded in 96-well plates at 7.5×10^3 cells per well in a volume of 50 μL, and incubated at 37° C./5% CO2. Drug solutions were made up freshly in Huh-7 media as 2× stocks. Ten additional 5-fold dilutions were prepared from these stocks in DMEM without G418. At least three hours after Zluc cells were seeded, drug treatment was initiated by adding 50 μL of drug dilutions to the plates in duplicate. Final concentrations of drug ranged from 100 μM to […]. Cells were then incubated at 37° C./5% CO2. Alternatively, compounds were tested at two concentrations (1 μM and 10 μM). […] For this, media was removed from the plates via gentle tapping. Fifty microliters of ONE-glo luciferase assay reagent was added to each well. The plates were shaken gently for 3 min at room temperature and luminescence was measured on a Victor^3 V 1420 multilabel counter (Perkin Elmer) with a 1 second read time using a 700 nm cut-off filter. The EC50 values were calculated from dose response curves from the resulting best-fit equations determined by Microsoft Excel and XLfit 4.1 software. When screening at two fixed concentrations, the results were expressed as % inhibition at 1 μM and 10 μM.

[2] = Liver triphosphate pharmacokinetics after single oral dose in CD-1 mice; format: in vivo; parameters: key: + ≤ 15; 15 < ++ ≤ 50; 50 < +++ ≤ 100; 100 < ++++; BLQ = below limit of quantitation; conditions: single oral dose 10 mg/kg in PEG 200;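 on Ms Liver TP AUC: pmol·h/g liver normalized to a 1 µmol/kg dose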;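 on Ms Liver TP Cmax: pmol/g liver normalized to a 1 µmol/kg dose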
Procedure: Internal standard solution was added to the homogenate followed by neutralization with 20% ammonium hydroxide solution and addition of 500 μL 1% formic acid. The tissue samples were extracted by weak anion exchange solid phase extraction (SPE). Post extraction, the eluates were evaporated under nitrogen, followed by reconstitution before injection onto the LC-MS/MS system.

[3] = in vitro; conditions: human
[4] = Plasma nucleoside pharmacokinetics after single oral dose in CD-1 mice; format: in vivo; conditions: single oral dose 10 mg/kg in PEG 200;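 on Ms Plasma nucleoside AUC: pmol·h/mL plasma normalized to a 1 µmol/kg dose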
Procedure: Plasma samples were analyzed for nucleoside by LC-MS/MS. The internal standard (IS) was either 2′-MeG-D3 or tiapride. For protein precipitation and extraction, each plasma sample (50 μL) was treated with 500 μL of 0.2% formic acid in acetonitrile and 20 μL of the internal standard working solution. After vortexing and centrifugation, 500 μL of the sample extracts were transferred to a new plate, dried under N2 at ˜28° C. and reconstituted with 75 μL of 0.2% FA in water. The extracts were chromatographed on an Aquasil C18 column using a gradient system of 0.2% formic acid in water and acetonitrile. The analytes were detected and quantified by tandem mass spectrometry in positive ion mode on an MDS Sciex API5000 equipped with a Turbo Ionspray® interface. The calibration range was 0.500 (LLOQ) to 200 ng/mL in mouse plasma.

[5] = Stability in liver microsomes; format: in vitro ADME; conditions: human liver microsomes 1.0 mg/mL, 10 μM, NADPH, 60 min
Procedure: (§1) Stability of test compounds were determined in human liver and intestinal microsomes in duplicate for each matrix. Pooled liver and intestinal microsomal proteins (1.0 mg/mL), suspended in incubation buffer (100 mM potassium phosphate, pH 7.4, 5 mM MgCl2, and 0.1 mM EDTA), were preincubated for 5 min at 37° C. with 10 μM of a test compound from a 10 mM stock solution in DMSO (final DMSO concentration was 0.1%); the reaction was initiated by the addition of NADPH (3 mM final concentration). At specific times (0 and 60 min), 0.1 mL samples were taken and the reaction terminated by the addition of 4 volumes of stop solution (acetonitrile with 500 ng/mL carbutamide as an internal standard). The samples were vortexed for 30 sec and then centrifuged at 16000×g for 10 min. 100 μL of supernatants were transferred to 96 deep-well plates preloaded with 100 μL distilled water and analyzed after mixing by LC-MS/MS. The MS peak area ratio of the test compound versus the internal standard was calculated and percent unchanged test compound over 60 minutes was calculated using this ratio.

[6] = system: Huh-7 cells; assay: Release of active metabolite in Huh-7 cells; format: in vitro ADME
Procedure: Huh-7 cells were plated in 1 mL culture medium (DMEM, containing glucose, L-glutamine and sodium pyruvate, 10% FBS, 100 IU/mL penicillin, 100 μg/mL streptomycin, 2 mM GlutaMAX, 1% MEM non-essential amino acids) at the concentration 0.8, 0.4 and 0.2 million cells per well on 6 well plates for 24, 48 and 72 hr treatment, respectively. Plated cells were incubated overnight at 37° C. in an incubator.
The following morning test compound was diluted to 20 μM from a stock solution in DMSO in fresh culture medium pre-warmed to 37° C. and 1 mL of the solution/well was added to cells. A final medium volume per well was 2.0 mL, test compound concentration in well was 10 μM and final DMSO concentration was 0.1%.
After 24, 48 or 72 hr, the medium was carefully removed and cell monolayers were washed twice with 2 mL ice-cold PBS per well. Following the last wash, all PBS was carefully removed and 1.0 mL of extraction solution (ice-cold 70% methanol) added. The plate was tightly covered with Parafilm, plastic plate cover and Parafilm again and an intracellular content was extracted at −20° C. for 24 hr.
After 24 hr the extracts were transferred into polypropylene microfuge tubes and dry on a refrigerated centrivap concentrator. Dry residues were reconstituted in 250 μL of HPLC-grade water and centrifuged at 16,000×g for 10 min. Aliquots (100 μL each) of the supernatants were transferred into a 96 well plate and internal standard (4 ng/mL final concentration) was added as the internal standard (IS) for LC-MS/MS analysis.

[7] = Stability in intestinal microsomes; format: in vitro ADME; conditions: human intestinal microsomes 1.0 mg/mL, 10 μM, NADPH, 60 min
Procedure: as §1

SMILES	EC50 ([1]; Hepatitis C virus, 72 h)	Ms Liver TP AUC [2]	Ms Liver TP Cmax [2]	CC50 [3]	Ms Plasma nucleoside AUC [4]	Ms Plasma nucleoside Cmax [4]	HLM (1 hr) stability (percent remaining) [5]	EC50 [1]	Huh-7 TP AUC ([6]; 10 μM)	Huh-7 TP Cmax ([6]; 10 μM test compound)	Huh-7 TP (24 hr) ([6]; 10 μM, 24 hr)	Huh-7 TP (48 hr) ([6]; 10 μM, 48 hr)	Huh-7 TP (72 hr) ([6]; 10 μM, 72 hr)	HIM (1 hr) stability (percent remaining) [7]
CCOc1nc(N)nc2c1ncn2[C@@H]1O[C@H](COP(=O)(N[C@@H](C)C(=O)OC(C)C)Oc2ccccc2)[C@@H](O)[C@@]1(C)Cl (single isomer, unassigned) [Compound 17ii Diastereomer 1]	1 to 10 µM	BLQ	BLQ	> 50 µM	–	–	–	–	–	–	–	–	–	–
CC(C)OP1(=O)OC[C@H]2O[C@@H](n3ccc(=O)[nH]c3=O)[C@](C)(Cl)[C@@H]2O1 (single isomer, unassigned) [Compound 37 Diastereomer 1]	1 to 10 µM	++++ (1500 < ++++)	++++ (100 < ++++)	> 50 µM	+++ (500 < +++ ≤ 1500)	+++ (50 < +++ ≤ 100)	–	–	–	–	–	–	–	–
CC(C)OC(=O)[C@H](C)NP(=O)(OC[C@H]1O[C@@H](n2ccc(=O)[nH]c2=O)[C@](C)(Cl)[C@@H]1O)Oc1ccccc1 (single isomer, unassigned) [Compound 40ii Diastereomer 1]	–	+++ (500 < +++ ≤ 1500)	+++ (50 < +++ ≤ 100)	> 50 µM	+++ (500 < +++ ≤ 1500)	+++ (50 < +++ ≤ 100)	+ (+ ≤ 25%)	1 to 10 µM	++++ (1500 < ++++)	++++ (100 < ++++)	++ (15 < ++ ≤ 50)	+++ (50 < +++ ≤ 100)	++++ (100 < ++++)	+++ (50% < +++ ≤ 75%)
CC(C)(C)C(=O)SCCOP1(=O)OC[C@H]2O[C@@H](n3ccc(N)nc3=O)[C@](C)(Cl)[C@@H]2O1 (single isomer, unassigned) [Compound 61 Diastereomer 1]	< 0.25 µM	+++ (500 < +++ ≤ 1500)	+++ (50 < +++ ≤ 100)	> 50 µM	+ (+ ≤ 150)	++++ (100 < ++++)	–	–	–	–	–	–	–	–
CCOC(=O)NCC(C)(C)C(=O)SCCOP1(=O)OC[C@H]2O[C@@H](n3ccc(=O)[nH]c3=O)[C@](C)(Cl)[C@@H]2O1 (single isomer, unassigned) [Compound 70 Single Diastereomer]	< 0.25 µM	++++ (1500 < ++++)	++++ (100 < ++++)	> 50 µM	++++ (1500 < ++++)	++++ (100 < ++++)	–	–	–	–	–	–	–	–
CC(C)(C)C(=O)SCCOP1(=O)OC[C@H]2O[C@@H](n3ccc(=O)[nH]c3=O)[C@](C)(Cl)[C@@H]2O1 (single isomer, unassigned) [Compound 201 Single Diastereomer]	< 0.25 µM	++++ (1500 < ++++)	++++ (100 < ++++)	> 50 µM	+++ (500 < +++ ≤ 1500)	+++ (50 < +++ ≤ 100)	–	–	–	–	–	–	–	–
CCCCOC(=O)[C@@H](C)NP(=O)(OC[C@H]1O[C@@H](n2ccc(=O)[nH]c2=O)[C@](C)(Cl)[C@@H]1O)Oc1ccccc1 (single isomer, unassigned) [Compound 202i Diastereomer 1]	–	++++ (1500 < ++++)	++++ (100 < ++++)	> 50 µM	++++ (1500 < ++++)	++++ (100 < ++++)	–	1 to 10 µM	–	–	–	–	–	–
C[C@@H](NP(=O)(OC[C@H]1O[C@@H](n2ccc(=O)[nH]c2=O)[C@](C)(Cl)[C@@H]1O)Oc1ccccc1)C(=O)OCc1ccccc1 (single isomer, unassigned) [Compound 205i Diastereomer 1]	–	++++ (1500 < ++++)	++++ (100 < ++++)	> 50 µM	+++ (500 < +++ ≤ 1500)	+++ (50 < +++ ≤ 100)	–	1 to 10 µM	–	–	–	–	–	–
CC(C)OC(=O)[C@H](C)NP(=O)(OC[C@H]1O[C@@H](n2ccc3c(N)ncnc32)[C@](C)(Cl)[C@@H]1O)Oc1ccccc1 (single isomer, unassigned) [Compound 208ii Diastereomer 1]	> 10 µM	BLQ	BLQ	> 50 µM	–	–	–	–	–	–	–	–	–	–
C[C@@]1(Cl)[C@H](O)[C@@H](CO)O[C@H]1n1ccc(=O)[nH]c1=O [Compound 301, 2′-C-Chloro-2′-C-methyluridine]	> 10 µM	BLQ	BLQ	> 50 µM	+++ (500 < +++ ≤ 1500)	+++ (50 < +++ ≤ 100)	–	–	–	–	–	–	–	–
